Key:
Male Sprague-Dawley rats = assay: Neuropathic pain: SNI model (lesion of the sciatic nerve); format: in vivo, rat
From the text: We evaluated the effect of […] in a model of neuropathic pain: the model of lesion of the sciatic nerve. The characteristic feature of neuropathic pain is that both macroglia and microglia (the cells that support the neurons metabolically) can alter their phenotype (reactive gliosis) as a result of some traumatic-inflammatory peripheral events, duplicated in this model. These phenotypic and functional changes can become permanent and the perception of pain can continue even after its primary cause has disappeared. The cells react to the positive lesion by increasing the glial fibrillary acidic protein (GFAP) and the ionized calcium-binding adapter molecule (IBA1). Male Sprague-Dawley rats (250-300 g; Harlan, Italy) were divided into 5 groups.
Group I was treated with […] daily from day 1 to day 21; group II was treated daily with the drug from day 1 to day 7 and then again with a single dose on day 14; group III was treated with […] on day 1, day 7 and day 14; group IV was treated with only the vehicle and group V was submitted to a sham operation ([…]). […]
Behavioural tests were performed daily from day 0 to day 7 and then on alternate days until day 28. Mechanical allodynia was induced by von Frey filament stimulation and the onset of thermal hyperalgesia was measured using the Ugo Basile apparatus according to Hargreaves' method, 1988.

female NZB/NZW F1 mice = assay: Systemic lupus erythematosus model; format: in vivo, mouse
Method: Systemic lupus erythematosus (SLE) is a chronic autoimmune disease that generally begins with arthritis or arthralgia. Haematuria or proteinuria may be the only renal symptom, however, lupus glomerulonephritis may lead to acute or terminal renal failure. An experimental model of SLE consists of female F1 mice derived from crossing of the NZB strain with NZW. To evaluate the possible effect of […] in SLE, we treated female NZB/NZW F1 mice with 0.25 mg of […] or carrier 5 days a week for six weeks, starting the treatment when the mice had developed anti-DNA antibodies.

mdx mice = assay: Muscular dystrophy model; format: in vivo, mouse
From the text: The mdx mouse is characterized by a nonsense mutation in the dystrophin gene and constitutes an experimental model of DMD. The muscle of mdx is histologically normal in early postnatal development, but goes towards necrosis starting from the third week of life. The mdx mice show high levels of creatine kinase (CK) in the serum and accumulation of inflammatory cells, both markers of muscular degeneration. To assess the effect of […] in the progression of dystrophy and of inflammation in DMD, we treated mdx mice (n=10) at 4 weeks of age (in accordance with the recent SOPs for preclinical drug trials in mdx) with […] (0.25 mg/mouse) intraperitoneally every day for two weeks. The same number of mice of the same age was treated with the vehicle as control. After two weeks of treatment with […], the CK levels had decreased by 70% (P<0.05) (FIG. 33).
Cross sections of anterior tibial muscles stained with haematoxylin/eosin were quantified in duplicate in blind conditions with ImageJ software. In the same sections we also assessed centralization of the nucleus, degeneration of muscle fibres and their regeneration. […] The values obtained for the mice treated with […] were similar to those obtained for the control mice of the same age and genotype but without mutation in the dystrophin gene.
To assess the effect of […] on the inflammatory infiltrate in the muscle of mdx mice, the muscle sections were decorated with anti-CD3 antibodies (T cells). This analysis detected a 40% decrease in the number of cells positive for CD3.

[1] = 60 days from the end of treatment
[2] = quantitative PCR, vs vehicle, FIG. 35

## C=C(C=O)OC(C=O)n1cnc2c(N)ncnc21 (stereo not shown) [2-[1-(6-aminopurin-9-yl)-2-oxoethoxy]prop-2-enal]
Male Sprague-Dawley rats; 6 mg/kg and 30 mg/kg i.p., from first day until 7 days after end of treatment, FIGS. 10-15
  pain (mechanical allodynia, thermal hyperalgesia): reduces pain significantly
Male Sprague-Dawley rats; animals treated daily
  expression of the proteins of reactive gliosis Ibal and GFAP (immunohistochemical analysis): returns almost to the normal levels
Female NZB/NZW F1 mice; 0.25 mg 5 days a week for six weeks, two months following the treatment
  proteinuria: did not appear
Female NZB/NZW F1 mice; [1]
  deposition of immune complexes (histopathological score): significant decrease
  glomerular proliferation (histopathological score): significant decrease
  lymphocyte infiltration (histopathological score): significant decrease
Mdx mice; 0.25 mg/mouse i.p. daily for two weeks, P<0.05, FIG. 33
  decrease of creatine kinase (CK) levels: 70%
Mdx mice; anterior tibial muscles
  centralization of the nucleus: significant reductions
  number of degenerative fibres: significant reductions
Mdx mice; anterior tibial muscles, vs carrier, FIG. 34
  area of the muscle cross sections (CSA): significant increase in area of the muscle cross sections
Mdx mice; anti-CD3 stained muscle sections
  decrease in the number of cells positive for CD3 in muscle: 40%
Mdx mice; [2]
  I1-1β: significant reduction
  levels of mRNA typical of the Treg cells: significant increase
